{"source": "paper PMC3880798", "about": "(Clinical cancer research : an official journal of the …, 2013)", "key": {"[1]": {"assay": "Phase I dose escalation: safety, tolerability, DLT and MTD"}, "advanced solid tumors": {"test_system": "advanced solid tumors", "assay": "Antitumor response", "type": "in vivo, human"}, "[2]": {"assay": "Plasma pharmacokinetics of OSI-930", "type": "in vivo, human", "conditions": "for AUC / Cmax / concentration at 22 day / half-life / Tmax: human, plasma, oral, day 22, steady state; for AUC: AUCtau; for concentration at 22 day: Cmin"}, "[3]": {"conditions": "19 evaluable patients with GIST"}, "[4]": {"conditions": "ovarian cancer patient, 400 mg twice a day"}, "[5]": {"conditions": "second ovarian cancer patient, 500 mg twice a day"}, "[6]": {"conditions": "50 mg, 50 mg once a day (n = 1)"}, "[7]": {"conditions": "100 mg, 100 mg once a day (n = 1)"}, "[8]": {"conditions": "200 mg, 200 mg once a day (n = 1)"}}, "note": "Values joined by “and” are separate entries in the source; they are usually repeats but may differ in a detail not shown here. Identical values can stand only once."}
{"compound": "O=C(Nc1ccc(OC(F)(F)F)cc1)c1sccc1NCc1ccnc2ccccc12", "note": "[OSI-930]", "values": [{"measurement": "Treatment-related AEs (number): Abdominal pain, G1–2", "setting": "[1]; 1,600 mg once a day (n = 3)", "value": 1}, {"measurement": "Treatment-related AEs (number): Abdominal pain, G3", "setting": "[1]; 1,600 mg once a day (n = 3)", "value": 0}, {"measurement": "Treatment-related AEs (number): Anorexia, G1–2", "setting": "[1]; 1,600 mg once a day (n = 3)", "value": 2}, {"measurement": "Treatment-related AEs (number): Anorexia, G3", "setting": "[1]; 1,600 mg once a day (n = 3)", "value": 0}, {"measurement": "Treatment-related AEs (number): Diarrhea, G1–2", "setting": "[1]; 1,600 mg once a day (n = 3)", "value": 0}, {"measurement": "Treatment-related AEs (number): Diarrhea, G3", "setting": "[1]; 1,600 mg once a day (n = 3)", "value": 0}, {"measurement": "Treatment-related AEs (number): Dry skin, G1–2", "setting": "[1]; 1,600 mg once a day (n = 3)", "value": 0}, {"measurement": "Treatment-related AEs (number): Dry skin, G3", "setting": "[1]; 1,600 mg once a day (n = 3)", "value": 0}, {"measurement": "Treatment-related AEs (number): Dyspepsia, G1–2", "setting": "[1]; 1,600 mg once a day (n = 3)", "value": 0}, {"measurement": "Treatment-related AEs (number): Dyspepsia, G3", "setting": "[1]; 1,600 mg once a day (n = 3)", "value": 0}, {"measurement": "Treatment-related AEs (number): Fatigue, G1–2", "setting": "[1]; 1,600 mg once a day (n = 3)", "value": 1}, {"measurement": "Treatment-related AEs (number): Fatigue, G3", "setting": "[1]; 1,600 mg once a day (n = 3)", "value": 0}, {"measurement": "Treatment-related AEs (number): Flatulence, G1–2", "setting": "[1]; 1,600 mg once a day (n = 3)", "value": 0}, {"measurement": "Treatment-related AEs (number): Flatulence, G3", "setting": "[1]; 1,600 mg once a day (n = 3)", "value": 0}, {"measurement": "Treatment-related AEs (number): Hair color changes, G1–2", "setting": "[1]; 1,600 mg once a day (n = 3)", "value": 0}, {"measurement": "Treatment-related AEs (number): Hair color changes, G3", "setting": "[1]; 1,600 mg once a day (n = 3)", "value": 0}, {"measurement": "Treatment-related AEs (number): Headache, G1–2", "setting": "[1]; 1,600 mg once a day (n = 3)", "value": 0}, {"measurement": "Treatment-related AEs (number): Headache, G3", "setting": "[1]; 1,600 mg once a day (n = 3)", "value": 0}, {"measurement": "Treatment-related AEs (number): Hypertension, G1–2", "setting": "[1]; 1,600 mg once a day (n = 3)", "value": 0}, {"measurement": "Treatment-related AEs (number): Hypertension, G3", "setting": "[1]; 1,600 mg once a day (n = 3)", "value": 0}, {"measurement": "Treatment-related AEs (number): Muscle spasms, G1–2", "setting": "[1]; 1,600 mg once a day (n = 3)", "value": 0}, {"measurement": "Treatment-related AEs (number): Muscle spasms, G3", "setting": "[1]; 1,600 mg once a day (n = 3)", "value": 0}, {"measurement": "Treatment-related AEs (number): Myalgia, G1–2", "setting": "[1]; 1,600 mg once a day (n = 3)", "value": 0}, {"measurement": "Treatment-related AEs (number): Myalgia, G3", "setting": "[1]; 1,600 mg once a day (n = 3)", "value": 0}, {"measurement": "Treatment-related AEs (number): Nausea, G1–2", "setting": "[1]; 1,600 mg once a day (n = 3)", "value": 1}, {"measurement": "Treatment-related AEs (number): Nausea, G3", "setting": "[1]; 1,600 mg once a day (n = 3)", "value": 0}, {"measurement": "Treatment-related AEs (number): Palmar-plantar erythema, G1–2", "setting": "[1]; 1,600 mg once a day (n = 3)", "value": 0}, {"measurement": "Treatment-related AEs (number): Palmar-plantar erythema, G3", "setting": "[1]; 1,600 mg once a day (n = 3)", "value": 0}, {"measurement": "Treatment-related AEs (number): Vomiting, G1–2", "setting": "[1]; 1,600 mg once a day (n = 3)", "value": 0}, {"measurement": "Treatment-related AEs (number): Vomiting, G3", "setting": "[1]; 1,600 mg once a day (n = 3)", "value": 0}, {"measurement": "DLTs observed", "setting": "[1]; once a day dosing schedule, 50 to 1,600 mg", "value": "no DLTs"}, {"measurement": "Treatment-related deaths", "setting": "[1]; twice a day cohorts", "value": "no treatment-related deaths"}, {"measurement": "Duration of disease stabilization", "setting": "advanced solid tumors; 1 patient, anthracycline-resistant low-grade sarcoma, once a day", "value": 139, "unit": "weeks"}, {"measurement": "Duration of RECIST stabilization of disease", "setting": "advanced solid tumors; 1 patient, low-grade sarcoma, escalated from 100 to 1,200 mg once a day", "value": 33, "unit": "months"}, {"measurement": "Patients with stable disease as best response", "setting": "advanced solid tumors; [3]", "value": "57.9% and 58%"}, {"measurement": "RECIST PRs", "setting": "advanced solid tumors; [3]", "value": "no RECIST PRs"}, {"measurement": "RECIST partial or complete responses", "setting": "advanced solid tumors; once a day cohorts", "value": "No RECIST partial or complete responses"}, {"measurement": "Patients with stable disease as best response", "setting": "advanced solid tumors; once a day cohorts, 50 to 1,600 mg", "value": "4 of 12"}, {"measurement": "Time of confirmed RECIST PR", "setting": "advanced solid tumors; [4]", "value": 24, "unit": "weeks"}, {"measurement": "Time of disease progression", "setting": "advanced solid tumors; [4]", "value": 65, "unit": "weeks"}, {"measurement": "Time to GCIG CA125 response", "setting": "advanced solid tumors; [4]", "value": 15, "unit": "weeks"}, {"measurement": "Median duration of stable disease", "setting": "advanced solid tumors; patients with GIST", "value": 126, "unit": "days"}, {"measurement": "Further duration of GCIG CA125 response", "setting": "advanced solid tumors; [5]", "value": 12, "unit": "weeks"}, {"measurement": "Time to GCIG CA125 response", "setting": "advanced solid tumors; [5]", "value": 12, "unit": "weeks"}, {"measurement": "Patients who achieved stable disease", "setting": "advanced solid tumors; twice a day cohort", "value": 48, "unit": "%"}, {"measurement": "Rate and extent of absorption, sieved (screened) vs micronized capsules", "setting": "[2]; 400 mg twice a day cohort, 3 vs 4 patients, data not shown", "value": "similar"}, {"measurement": "Dose proportionality of exposure", "setting": "[2]; 400 and 500 mg twice a day", "value": "dose proportional"}, {"measurement": "Dose proportionality of exposure", "setting": "[2]; between 500 and 600 mg twice a day", "value": "greater than dose proportional"}, {"measurement": "AUC", "setting": "[2]; [6]", "value": 2590, "unit": "ng·h/mL"}, {"measurement": "Cmax", "setting": "[2]; [6]", "value": 188, "unit": "ng/mL"}, {"measurement": "concentration at 22 day", "setting": "[2]; [6]", "value": 69.3, "unit": "ng/mL"}, {"measurement": "half-life", "setting": "[2]; 50 mg, T1/2, 50 mg once a day (n = 1)", "value": 12.6, "unit": "h"}, {"measurement": "Tmax", "setting": "[2]; [6]", "value": 6, "unit": "h"}, {"measurement": "AUC", "setting": "[2]; [7]", "value": 2490, "unit": "ng·h/mL"}, {"measurement": "Cmax", "setting": "[2]; [7]", "value": 228, "unit": "ng/mL"}, {"measurement": "concentration at 22 day", "setting": "[2]; [7]", "value": 61.5, "unit": "ng/mL"}, {"measurement": "half-life", "setting": "[2]; 100 mg, T1/2, 100 mg once a day (n = 1)", "value": 18.5, "unit": "h"}, {"measurement": "Tmax", "setting": "[2]; [7]", "value": 4, "unit": "h"}, {"measurement": "AUC", "setting": "[2]; [8]", "value": 4730, "unit": "ng·h/mL"}, {"measurement": "Cmax", "setting": "[2]; [8]", "value": 463, "unit": "ng/mL"}, {"measurement": "concentration at 22 day", "setting": "[2]; [8]", "value": 77.9, "unit": "ng/mL"}, {"measurement": "half-life", "setting": "[2]; 200 mg, T1/2, 200 mg once a day (n = 1)", "value": 7.95, "unit": "h"}, {"measurement": "Tmax", "setting": "[2]; [8]", "value": 6, "unit": "h"}]}
